Results published in article PMC11402852, “Genotoxicity of selected cannabinoids in human lymphoblastoid TK6 cells” (Archives of Toxicology, 2024).
Read-outs that look alike come from different tables or passages of the source.

Key:
[1] = tested on: human lymphoblastoid TK6 cells; test: Cytokinesis-block micronucleus (CBMN) assay
[2] = set-up: method as in Taylor et al. [2018]; settings: oral solution of CBD, healthy adults, ref Taylor et al. [2018], cited from earlier work
[3] = tested on: human lymphoblastoid TK6 cells; set-up: method as in Henderson et al. ([2023]); settings: TK6, with and without metabolic activation 4 h, and 27 h without metabolic activation; ref Henderson et al. ([2023]); cited from earlier work
TK6 cells [4] = test: Cell cycle analysis (flow cytometry, DAPI); format: cell-based, human; settings: without S9, CBG 30 µM, CBD 15 µM, CBDV 40 µM
Experimental: The cells were treated with CBG 30 µM, CBD 15 µM, CBC 15 µM, CBDV 40 µM, and CBN 15 µM for 6 or 24 h. The positive control was vincristine sulphate in a concentration of 0.0121 µM for 6 h of exposure and 0.0061 µM for 24 h. The solvent control was DMSO. Furthermore, experiments with the addition of S9 mix were performed with CBDV. In these experiments, cells were treated with CBDV (40 µM) with or without 0.25% S9 mix for 6 h. DMSO with or without the S9 mix was used as control, and the positive control was the same as mentioned above. After the treatment, cells were collected, washed twice with phosphate buffered saline (PBS) and fixed with 70% ethanol for 30 min on ice. Following each described step above, cells were centrifuged at 1000 rpm, 5 min, and 4 °C. Lastly, cells were resuspended in 1% bovine serum albumin (BSA) in PBS solution and stained with DAPI in a final concentration of 1 µg/mL for 30 min on ice. The cell distribution in different cell cycle phases was analyzed with MACSQuant® Analyzer 16 Flow Cytometer using a 450/50 nm filter and MACSQuantify™ Software 2.13 (Miltenyi Biotec, Bergisch Gladbach, Germany). For each sample, 20 000 events were analyzed. Four independent experiments were performed for 6 h of treatment without metabolic activation. Three independent experiments were done for 24 h of treatment without metabolic activation and 6 h of treatment with metabolic activation.

TK6 cells [5] = test: Tubulin visualization; format: cell-based, human; settings: 6 h; CBG 30 µM, CBD 15 µM, CBC 15 µM, CBN 15 µM; visually compared to control, not quantified
Experimental: For tubulin visualization, cells were treated with CBG 30 µM, CBD 15 µM, CBC 15 µM, CBDV 40 µM, and CBN 15 µM. The positive control was vincristine sulphate 0.0121 µM, and the solvent control was DMSO. Cells were treated for 6 h and then harvested. Slides were prepared with cytospin centrifugation. The cells were fixed in ice-cold methanol for 2 h. Following fixation, cells were permeabilized with 0.1% Tween20 in 1 × phosphate-buffered saline (PBS) for 5 min. Next, the anti-α-tubulin antibody was applied in 1:50 dilution. Antibody was diluted with 5% FCS in 1 × PBS. The antibody was incubated in a humid chamber at 4 °C for 24 h. Afterwards, the antibody was removed by washing slides twice with 0.5% Tween20 in 1 × PBS for 5 min. Nuclei were counterstained with Hoechst 33,258 (5 µg/mL, 3 min). The visualization was performed with a Keyence BZ-X800 microscope.

[6] = tested on: human gastric cancer, Sertoli and Leydig cells; set-up: method as in Zhang et al. [2019]; Li et al. [2022], [2023]; settings: 24 h of treatment; upregulated p53, reduced CDK2 and cyclin E; ref Zhang et al. [2019]; Li et al. [2022], [2023]; cited from earlier work
bone marrow of mice = tested on: bone marrow of mice; set-up: method as in Zimmerman and Raj ([1980]); settings: ref Zimmerman and Raj ([1980]); cited from earlier work
[7] = tested on: human buccal cell line TR146; set-up: method as in Russo et al. ([2019]); settings: ref Russo et al. ([2019]), cited from earlier work
[8] = tested on: bone marrow or liver of rats; set-up: method as in European Medicine Agency (EMA) ([2019]); settings: bone marrow or liver of rats after CBD treatment; ref European Medicine Agency (EMA) ([2019]); cited from earlier work
[9] = tested on: human lymphoblastoid TK6 cells; test: Kinetochore analysis of micronuclei; format: cell-based; settings: 4 h
Experimental: For kinetochore analysis, cells were treated for 4 h with CBG 30 µM, CBD 15 µM, CBC 15 µM, CBDV 40 µM, and CBN 15 µM. The positive controls were MMS 40 µM, and vincristine sulphate 0.0121 µM; the solvent control was DMSO. After 4 h of treatment, the culture medium was renewed, and cells were exposed for 24 h to the cytokinesis inhibitor cytochalasin B (3 μg/mL). Then, cells were harvested, and slides were prepared with cytospin centrifugation. The cells were fixed in ice-cold methanol for 2 h. Kinetochores were stained overnight with undiluted primary anti-centromere antibody at 37 °C followed by 1:20 diluted FITC-conjugated secondary antibody at 37 °C for 2 h. Nuclei were counterstained with Hoechst 33,258 (5 µg/mL, 3 min). The experiment was performed one time. Per compound, 200 micronuclei were evaluated for kinetochore signal presence (Fig. 3). The evaluation was performed with a Keyence BZ-X800 microscope. The slides used in kinetochore evaluation were also evaluated for the number of induced micronuclei as described in the above paragraph cytokinesis‑block micronucleus assay.

colon-derived cells = tested on: colon-derived cells; set-up: method as in Aviello et al. ([2012]); settings: 24 h of treatment, ref Aviello et al. ([2012]); cited from earlier work
human hepatoma cells = tested on: human hepatoma cells; set-up: method as in Russo et al. ([2019]); settings: 3 h of treatment, ref Russo et al. ([2019]); cited from earlier work

Structure (SMILES): C=C(C)[C@@H]1CCC(C)=C[C@H]1c1c(O)cc(CCCCC)cc1O [CBD, cannabidiol]
- BMDL (10th percentile) ([1]; 10th percentile of BMD50 estimation, 4 h, micronucleus data): 2.1 µM
- 4 h BMD50 ([1]; 50% increased relative genotoxicity vs controls, from micronucleus data, 4 h treatment, without S9, Bayesian BMD analysis): 8.7 µM
- BMDU (90th percentile) ([1]; 90th percentile of BMD50 estimation, 4 h, micronucleus data): 21.1 µM
- Number of micronuclei with S9 mix vs without ([1]; 4 h, CBG 30 µM, CBD 15 µM, CBC 15 µM, CBDV 40 µM, CBN 15 µM, 0.25% S9 mix): significant reduction in the number of micronuclei
- Micronucleus induction ([1]; 4 h treatment, without metabolic activation, at least one concentration, vs solvent control): significant induction of micronuclei
- Mean plasma Cmax following a high-fat meal ([2]; high-fat meal): 1628 ng/mL
- Cmax ([2]; high-fat meal, read-out: Mean plasma Cmax following a high-fat meal): 5.2 µM
- Mean plasma Cmax [2]: 335.4 ng/mL
- Cmax ([2]; read-out: Mean plasma Cmax): 1.1 µM
- Micronucleus results [3]: negative micronucleus results
- Cell cycle distribution, 6 h (TK6 cells [4]; 6 h, CBC 15 µM, CBN 15 µM): no significant changes in the normal cell cycle distribution
- Cell cycle distribution, 24 h (TK6 cells [4]; 24 h): accumulation of cells in the G1 phase
- Multipolar and monopolar tubulin aggregation (TK6 cells [5]): observed more frequently
- Cell cycle effect [6]: G1 phase cell cycle arrest
- Micronuclei in bone marrow in vivo (bone marrow of mice): induction of micronuclei
- DNA damage (comet assay) ([7]; TR146, after 3 and 24 h): damaged DNA
- Genotoxic properties with addition of liver enzymes (comet assay) ([7]; TR146, with liver enzymes): increased the genotoxic properties
- Micronucleus and comet assay in vivo [8]: negative results
- Kinetochore (+) MNi, % ([9]; of 200 micronuclei, CBG 30 µM, CBD 15 µM, CBC 15 µM, CBDV 40 µM, CBN 15 µM, MMS 40 µM, vincristine 0.0121 µM, one experiment): 47%
- Kinetochore (+) induced MNi ([9]; treatment – control (basal level of micronuclei subtracted), same concentrations): 63.7%
- DNA damage (comet assay) (colon-derived cells): did not induce DNA damage
- Micronucleus induction (human hepatoma cells): significant induction of micronuclei
